Source: patent publication US9247759B2, “Identification of human T2R receptors that respond to bitter compounds that elicit the bitter taste in compositions, and the use thereof in assays to identify compounds that inhibit (block) bitter taste in compositions and use thereof” (SENOMYX, INC., priority 2007, dated 2016)
“And” between values parts separate entries of the source, which are not always exact repeats. Equal values may be shown once. Read-outs that look alike come from different tables or passages of the source.

What was measured:
[1] = target: T1, hT2R14 (Homo sapiens (Human), UniProt Q9NYV8); experiment: hT2R panel inhibition, transient HEK293 G16g44, agonist Aristolochic Acid 2 μM; type: cell-based; conditions: HEK293, compound at 25 μM
Method in brief: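 Each hT2R was transiently transfected into HEK293 cells stably expressing G16g44 and assayed functionally for inhibition of agonist response. Agonists were applied at EC80: andrographolide at 0.5 mM for hT2R8 and aristolochic acid at 2 μM for hT2R14.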

[2] = target: hT2R4 (Homo sapiens (Human), UniProt Q9NYW5); experiment: hT2R panel inhibition, transient HEK293 G16g44, agonist Chloroquine pH6.5 5 mM; type: cell-based; conditions: HEK293, compound at 25 μM
Experimental: Specifically, in order to evaluate the inhibitory selectivity of the Compound C compound, this compound was tested against 22 human T2Rs which were deorphaned by Senomyx. These receptors and the bitter ligands that activate these human T2Rs are reported in earlier patent applications which are incorporated by reference herein. These 22 human T2Rs are hT2R1, 3, 4, 5, 7, 8, 9, 10, 13, 14, 16, 44, 51, 54, 55, 61, 63, 64, 65, 67, 71 and 75. The amino acid and nucleic acid sequences of all of these T2Rs may be found in these earlier patent applications. These human T2Rs were each individually transiently transfected into HEK293 cells that stably express the promiscuous G protein G16g44 and functional assays were effected using these receptors as disclosed in these same patent applications. […] The ligands were used at EC80 concentration levels. The list of bitter ligands utilized and the tested ligand concentrations are contained in Table 5 of this example.
Relating to the foregoing, FIG. 5 contains experimental results wherein Compound C was tested with different agonist compounds. The inhibition activity is represented by the reduction of receptor activity in the presence of Compound C. […] These 13 hT2Rs are hT2R3, 7, 10, 14, 16, 44, 51, 55, 61, 63, 64, 65, and 71.

[3] = target: T1, hT2R14; experiment: hT2R14 antagonist high-throughput FLIPR assay, stable cell line with G16g44, agonist aristolochic acid; type: cell-based; conditions: read-out: IC50 on hT2R14 bitter receptor
Method in brief: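 HEK293 cells stably expressing hT2R14 with chimeric G16g44 were stimulated with aristolochic acid (3 μM), giving 70-80% of maximal receptor activity. Test compounds were added together with the agonist, and antagonism was read as fluorescent calcium signal on FLIPR.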

[4] = tested on: hT2R55; experiment: hT2R panel inhibition, transient HEK293 G16g44, agonist Cinchonine 150 μM; type: cell-based, human; conditions: compound at 25 μM; for screening result against bitter receptor 55: receptor activated to EC80 with the corresponding agonist
Method in brief: (§1)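 Receptor activity was measured in functional assays after single-receptor transient transfection; bitter agonists were used at their EC80 levels. A decrease in that activity when the test compound was added was taken as inhibition.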

[5] = target: hT2R10 (Homo sapiens (Human), UniProt Q9NYW0); experiment: hT2R panel inhibition, transient HEK293 G16g44, agonist Strychnine 50 μM; type: cell-based
[6] = target: hT2R61 (Homo sapiens (Human), UniProt P59537); experiment: hT2R panel inhibition, transient HEK293 G16g44, agonist Aristolochic Acid 25 nM; type: cell-based; conditions: HEK293, compound at 25 μM
Method in brief: as §1

[7] = target: hT2R64 (Homo sapiens (Human), UniProt P59538); experiment: hT2R panel inhibition, transient HEK293 G16g44, agonist Aristolochic Acid 1 μM; type: cell-based; conditions: HEK293, compound at 25 μM
Method in brief: as §1

[8] = target: hT2R75 (Homo sapiens (Human), UniProt P59540); experiment: hT2R panel inhibition, transient HEK293 G16g44, agonist Strychnine 1 μM; type: cell-based; conditions: HEK293, read-out: screening result against bitter receptor 75, compound at 25 μM; receptor activated to EC80 with the corresponding agonist
[9] = tested on: hT2R63; experiment: hT2R panel inhibition, transient HEK293 G16g44, agonist Caffeine 1 mM or Andrographolide 100 μM; type: cell-based, human; conditions: compound at 25 μM; for screening result against bitter receptor 63: receptor activated to EC80 with the corresponding agonist
Method in brief: as §1

[10] = target: hT2R3 (Homo sapiens (Human), UniProt Q9NYW6); experiment: hT2R panel inhibition, transient HEK293 G16g44, agonist Chloroquine pH6.5 50 μM; type: cell-based; conditions: HEK293, compound at 25 μM
Method in brief: as §1

[11] = target: hT2R71 (Homo sapiens (Human), UniProt P59536); experiment: hT2R panel inhibition, transient HEK293 G16g44, agonist Picric Acid 10 μM; type: cell-based; conditions: HEK293, compound at 25 μM
Method in brief: as §1

[12] = target: hT2R16 (Homo sapiens (Human), UniProt Q9NYV7); experiment: hT2R panel inhibition, transient HEK293 G16g44, agonist Salicin 1 mM; type: cell-based; conditions: HEK293, compound at 25 μM
Method in brief: as §1

[13] = tested on: hT2R44; experiment: hT2R panel inhibition, transient HEK293 G16g44, agonist Denatonium 0.5 μM; type: cell-based, human; conditions: compound at 25 μM; for screening result against bitter receptor 44: receptor activated to EC80 with the corresponding agonist
Method in brief: as §1

[14] = target: hT2R7 (Homo sapiens (Human), UniProt Q9NYW3); experiment: hT2R panel inhibition, transient HEK293 G16g44, agonist Chloroquine pH6.5 10 mM; type: cell-based; conditions: HEK293, compound at 25 μM
Method in brief: as §1

[15] = tested on: hT2R65; experiment: hT2R panel inhibition, transient HEK293 G16g44, agonist Oleuropein 1 mM; type: cell-based, human; conditions: compound at 25 μM
Method in brief: as §1

[16] = target: hT2R5 (Homo sapiens (Human), UniProt Q9NYW4); experiment: hT2R panel inhibition, transient HEK293 G16g44, agonist Picoline 10 mM; type: cell-based; conditions: HEK293, compound at 25 μM
Method in brief: as §1

[17] = tested on: hT2R54; experiment: hT2R panel inhibition, transient HEK293 G16g44, agonist Ranitidine 5 mM; type: cell-based, human; conditions: compound at 25 μM
Method in brief: as §1

[18] = target: hT2R51 (Homo sapiens (Human), UniProt P59533); experiment: hT2R panel inhibition, transient HEK293 G16g44, agonist Prop 2.5 μM; type: cell-based; conditions: HEK293, compound at 25 μM
Method in brief: as §1

[19] = tested on: hT2R67; experiment: hT2R panel inhibition, transient HEK293 G16g44, agonist Andrographolide 5 μM; type: cell-based, human; conditions: compound at 25 μM; receptor activated to EC80 with agonist
Method in brief: as §1

[20] = receptor activated to EC80 with the corresponding agonist, read-out: screening result against bitter receptor 14
[21] = receptor activated to EC80 with the corresponding agonist, class symbols, read-out: screening result against bitter receptor 4
[22] = HEK293, read-out: screening result against bitter receptor 10, compound at 25 μM, receptor activated to EC80 with the corresponding agonist
[23] = receptor activated to EC80 with the corresponding agonist, read-out: screening result against bitter receptor 61
[24] = receptor activated to EC80 with the corresponding agonist, read-out: screening result against bitter receptor 64
[25] = receptor activated to EC80 with the corresponding agonist, read-out: screening result against bitter receptor 3
[26] = receptor activated to EC80 with the corresponding agonist, read-out: screening result against bitter receptor 71
[27] = receptor activated to EC80 with the corresponding agonist, read-out: screening result against bitter receptor 16
[28] = receptor activated to EC80 with the corresponding agonist, read-out: screening result against bitter receptor 7
[29] = receptor activated to EC80 with the corresponding agonist
[30] = receptor activated to EC80 with the corresponding agonist, read-out: screening result against bitter receptor 5
[31] = receptor activated to EC80 with agonist

Chain of hT2R64 (P59538 whole entry): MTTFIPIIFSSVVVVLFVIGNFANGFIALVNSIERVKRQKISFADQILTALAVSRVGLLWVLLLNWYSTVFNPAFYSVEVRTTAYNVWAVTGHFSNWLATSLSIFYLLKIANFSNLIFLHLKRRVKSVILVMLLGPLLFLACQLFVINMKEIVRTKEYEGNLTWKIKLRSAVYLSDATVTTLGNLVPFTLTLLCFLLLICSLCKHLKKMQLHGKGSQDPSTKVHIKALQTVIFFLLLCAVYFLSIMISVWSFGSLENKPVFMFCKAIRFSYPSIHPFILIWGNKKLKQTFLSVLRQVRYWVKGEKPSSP
Chain of hT2R16 (Q9NYV7 whole entry): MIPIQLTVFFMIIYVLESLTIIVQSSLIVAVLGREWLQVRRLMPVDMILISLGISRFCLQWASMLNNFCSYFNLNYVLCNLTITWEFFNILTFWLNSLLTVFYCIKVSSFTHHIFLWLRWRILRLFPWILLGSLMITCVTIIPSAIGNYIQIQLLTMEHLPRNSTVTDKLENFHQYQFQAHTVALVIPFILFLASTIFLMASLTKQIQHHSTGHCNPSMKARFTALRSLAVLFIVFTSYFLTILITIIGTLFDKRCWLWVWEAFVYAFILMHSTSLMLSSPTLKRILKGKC
T1 sequence (Q9NYV8 whole entry): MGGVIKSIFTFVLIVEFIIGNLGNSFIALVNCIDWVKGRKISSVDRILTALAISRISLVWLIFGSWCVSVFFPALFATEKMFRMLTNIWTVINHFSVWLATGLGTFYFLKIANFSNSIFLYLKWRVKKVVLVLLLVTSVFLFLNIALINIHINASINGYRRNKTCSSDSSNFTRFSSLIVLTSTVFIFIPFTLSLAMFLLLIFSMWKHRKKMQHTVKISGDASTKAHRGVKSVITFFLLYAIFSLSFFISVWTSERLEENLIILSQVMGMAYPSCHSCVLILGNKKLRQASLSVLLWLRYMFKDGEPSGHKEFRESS
Chain of hT2R4 (Q9NYW5 whole entry): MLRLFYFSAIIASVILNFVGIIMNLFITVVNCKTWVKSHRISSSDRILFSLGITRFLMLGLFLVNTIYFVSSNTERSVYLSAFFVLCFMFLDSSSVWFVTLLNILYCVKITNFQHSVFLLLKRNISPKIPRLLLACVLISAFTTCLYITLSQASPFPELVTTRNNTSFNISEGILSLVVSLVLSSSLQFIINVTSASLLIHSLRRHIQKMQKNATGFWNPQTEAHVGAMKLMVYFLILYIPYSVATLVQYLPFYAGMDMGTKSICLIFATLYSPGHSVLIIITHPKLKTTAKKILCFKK
Chain of hT2R10 (Q9NYW0 whole entry): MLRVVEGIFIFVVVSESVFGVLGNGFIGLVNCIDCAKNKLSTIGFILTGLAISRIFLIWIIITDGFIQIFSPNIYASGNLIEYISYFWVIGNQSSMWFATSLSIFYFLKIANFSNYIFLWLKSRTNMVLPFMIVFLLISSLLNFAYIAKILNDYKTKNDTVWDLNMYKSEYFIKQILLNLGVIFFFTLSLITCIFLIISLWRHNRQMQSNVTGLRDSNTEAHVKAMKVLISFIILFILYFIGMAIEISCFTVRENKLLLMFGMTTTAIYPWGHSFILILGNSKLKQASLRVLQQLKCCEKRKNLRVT
Chain of hT2R61 (P59537 whole entry): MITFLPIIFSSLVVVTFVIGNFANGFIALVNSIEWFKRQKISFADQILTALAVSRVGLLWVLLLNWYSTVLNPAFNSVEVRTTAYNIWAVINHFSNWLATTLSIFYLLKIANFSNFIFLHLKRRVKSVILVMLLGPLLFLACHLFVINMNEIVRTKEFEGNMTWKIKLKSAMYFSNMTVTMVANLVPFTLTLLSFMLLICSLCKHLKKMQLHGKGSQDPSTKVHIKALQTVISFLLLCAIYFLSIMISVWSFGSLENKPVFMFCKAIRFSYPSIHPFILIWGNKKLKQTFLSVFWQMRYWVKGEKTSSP
Chain of hT2R71 (P59536 whole entry): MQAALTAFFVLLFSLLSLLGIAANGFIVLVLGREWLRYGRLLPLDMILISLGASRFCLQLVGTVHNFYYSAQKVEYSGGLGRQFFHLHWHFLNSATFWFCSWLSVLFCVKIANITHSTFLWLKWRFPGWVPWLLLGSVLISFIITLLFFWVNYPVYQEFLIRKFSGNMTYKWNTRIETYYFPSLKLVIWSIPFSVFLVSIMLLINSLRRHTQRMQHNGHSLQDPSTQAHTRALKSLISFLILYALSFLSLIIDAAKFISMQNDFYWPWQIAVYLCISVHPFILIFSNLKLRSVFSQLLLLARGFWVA
Chain of hT2R5 (Q9NYW4 whole entry): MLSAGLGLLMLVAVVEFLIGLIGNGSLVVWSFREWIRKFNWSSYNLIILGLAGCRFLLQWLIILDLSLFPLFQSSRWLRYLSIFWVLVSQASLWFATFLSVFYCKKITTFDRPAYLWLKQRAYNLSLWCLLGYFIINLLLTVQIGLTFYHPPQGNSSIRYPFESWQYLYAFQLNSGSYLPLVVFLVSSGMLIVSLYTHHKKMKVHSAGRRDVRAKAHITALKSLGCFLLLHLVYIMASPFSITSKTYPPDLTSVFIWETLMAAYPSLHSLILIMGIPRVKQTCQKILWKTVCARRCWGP
Chain of hT2R3 (Q9NYW6 whole entry): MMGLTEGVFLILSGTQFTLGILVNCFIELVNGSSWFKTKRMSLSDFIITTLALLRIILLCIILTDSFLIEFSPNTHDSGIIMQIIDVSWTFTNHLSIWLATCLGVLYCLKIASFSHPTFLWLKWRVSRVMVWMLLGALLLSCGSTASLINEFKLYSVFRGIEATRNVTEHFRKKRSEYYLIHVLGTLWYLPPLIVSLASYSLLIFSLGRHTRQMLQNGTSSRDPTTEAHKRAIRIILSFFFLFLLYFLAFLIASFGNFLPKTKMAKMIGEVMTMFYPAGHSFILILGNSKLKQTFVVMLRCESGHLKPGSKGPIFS
Chain of hT2R7 (Q9NYW3 whole entry): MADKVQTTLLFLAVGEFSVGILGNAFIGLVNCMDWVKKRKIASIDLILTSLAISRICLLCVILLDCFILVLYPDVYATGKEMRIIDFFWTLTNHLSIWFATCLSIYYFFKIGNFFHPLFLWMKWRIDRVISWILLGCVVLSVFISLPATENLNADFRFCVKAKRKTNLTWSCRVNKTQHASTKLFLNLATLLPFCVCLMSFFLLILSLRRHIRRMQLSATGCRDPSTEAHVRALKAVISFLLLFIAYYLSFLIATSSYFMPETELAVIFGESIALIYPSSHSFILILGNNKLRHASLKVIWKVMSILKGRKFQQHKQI
Chain of hT2R51 (P59533 whole entry): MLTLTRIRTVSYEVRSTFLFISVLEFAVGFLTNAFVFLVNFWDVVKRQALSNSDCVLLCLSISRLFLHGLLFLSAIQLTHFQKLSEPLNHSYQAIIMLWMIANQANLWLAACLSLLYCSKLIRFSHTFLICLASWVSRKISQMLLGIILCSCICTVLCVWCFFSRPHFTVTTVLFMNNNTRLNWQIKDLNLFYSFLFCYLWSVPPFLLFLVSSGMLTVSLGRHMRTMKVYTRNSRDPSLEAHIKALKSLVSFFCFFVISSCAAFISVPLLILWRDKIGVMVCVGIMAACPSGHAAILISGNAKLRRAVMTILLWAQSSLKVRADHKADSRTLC
Chain of hT2R75 (P59540 whole entry): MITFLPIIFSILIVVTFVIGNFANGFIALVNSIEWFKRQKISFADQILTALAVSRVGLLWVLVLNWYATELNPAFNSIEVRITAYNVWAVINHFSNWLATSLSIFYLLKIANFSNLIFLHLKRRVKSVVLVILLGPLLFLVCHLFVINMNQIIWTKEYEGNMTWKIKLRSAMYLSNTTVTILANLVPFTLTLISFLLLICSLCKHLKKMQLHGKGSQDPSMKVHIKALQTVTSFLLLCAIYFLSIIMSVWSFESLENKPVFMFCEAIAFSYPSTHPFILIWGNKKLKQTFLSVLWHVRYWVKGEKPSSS

CCN(Cc1ccc(OC)cc1)S(=O)(=O)c1ccc(C(=O)O)cc1 [Example 5-4, 4-(N-ethyl-N-(4-methoxybenzyl)sulfamoyl)benzoic acid]
inhibition at 25 µM [1, 20]: 40 to 60% | inhibition at 25 µM [2, 21]: 20 to 40% | IC50 [3]: 20 µM and 10 µM | screening result against bitter receptor 55 [4]: ++++ (80% or greater inhibition = ++++) | inhibition at 25 µM [5, 22]: 40 to 60% | inhibition at 25 µM [6, 23]: 20 to 40% | inhibition at 25 µM [7, 24]: > 80% | inhibition at 25 µM [8]: 20 to 40% | screening result against bitter receptor 63 [9]: +++ (60% to 80% inhibition = +++)

O=C(O)C1CCC(CN(Cc2ccc(F)cc2)S(=O)(=O)c2ccccc2)CC1 (stereo not drawn) [Example 5-22, 4-((N-(4-fluorobenzyl)phenylsulfonamido)methyl)-cyclohexanecarboxylic acid]
inhibition at 25 µM [10, 25]: 40 to 60% | inhibition at 25 µM [1, 20]: > 80% | inhibition at 25 µM [2, 21]: 40 to 60% | IC50 [3]: 0.24 µM | inhibition at 25 µM [11, 26]: 40 to 60% | screening result against bitter receptor 55 [4]: +++ (60% to 80% inhibition = +++) | inhibition at 25 µM [5, 22]: 20 to 40% | inhibition at 25 µM [6, 23]: > 80% | inhibition at 25 µM [7, 24]: 40 to 60% | inhibition at 25 µM [12, 27]: 20 to 40% | inhibition at 25 µM [8]: 20 to 40% | screening result against bitter receptor 63 [9]: +++ (60% to 80% inhibition = +++) | screening result against bitter receptor 44 [13]: ++ (40% to 60% inhibition = ++) | inhibition at 25 µM [14, 28]: 20 to 40%

Cc1ccc(S(=O)(=O)N(Cc2ccc(F)cc2)Cc2ccc(C(=O)O)cc2)cc1 [Example 5-37, 4-((N-(4-fluorobenzyl)-4-methylphenylsulfonamido)methyl)benzoic acid]
screening result against bitter receptor 65 [15, 29]: ++ (40% to 60% inhibition = ++) | inhibition at 25 µM [10, 25]: 20 to 40% | inhibition at 25 µM [1, 20]: > 80% | inhibition at 25 µM [2, 21]: 60 to 80% | IC50 [3]: 0.054 µM | screening result against bitter receptor 55 [4]: ++++ (80% or greater inhibition = ++++) | inhibition at 25 µM [16, 30]: 20 to 40% | inhibition at 25 µM [7, 24]: 60 to 80% | inhibition at 25 µM [12, 27]: 20 to 40% | screening result against bitter receptor 63 [9]: + (20% to 40% inhibition = +) | inhibition at 25 µM [14, 28]: 20 to 40%

COc1ccc(CN(Cc2ccc(OC)c(OC)c2)S(=O)(=O)c2ccc(C(=O)O)cc2)cc1 [Example 5-40, 4-(N-(3,4-dimethoxybenzyl)-N-(4-methoxybenzyl)sulfamoyl)benzoic acid]
inhibition at 25 µM [10, 25]: 20 to 40% | inhibition at 25 µM [1, 20]: > 80% | inhibition at 25 µM [2, 21]: 20 to 40% | IC50 [3]: 1.47 µM | screening result against bitter receptor 54 [17, 29]: + (20% to 40% inhibition = +) | inhibition at 25 µM [11, 26]: 40 to 60% | screening result against bitter receptor 55 [4]: ++++ (80% or greater inhibition = ++++) | inhibition at 25 µM [16, 30]: 20 to 40% | inhibition at 25 µM [5, 22]: 40 to 60% | inhibition at 25 µM [6, 23]: > 80% | inhibition at 25 µM [7, 24]: 60 to 80% | inhibition at 25 µM [12, 27]: 20 to 40% | inhibition at 25 µM ([18]; receptor activated to EC80 with the corresponding agonist, read-out: screening result against bitter receptor 51): 20 to 40% | screening result against bitter receptor 63 [9]: ++++ (80% or greater inhibition = ++++) | screening result against bitter receptor 44 [13]: +++ (60% to 80% inhibition = +++)

CCOc1ccc(CN(Cc2ccccc2)S(=O)(=O)c2ccc(C(=O)O)cc2)cc1 [Example 5-108, 4-(N-benzyl-N-(4-ethoxybenzyl)sulfamoyl)benzoic acid]
inhibition of bitter receptor 65 [15, 31]: ++ (40% to 60% inhibition = ++) | inhibition of bitter receptor 67 [19]: + (20% to 40% inhibition = +) | inhibition at 25 µM ([10]; receptor activated to EC80 with agonist, read-out: inhibition of bitter receptor 3): 40 to 60% | inhibition at 25 µM ([1]; receptor activated to EC80 with agonist, read-out: inhibition of bitter receptor 14): > 80% | inhibition at 25 µM ([2]; receptor activated to EC80 with agonist, read-out: inhibition of bitter receptor 4): 60 to 80% | inhibition of bitter receptor 54 [17, 31]: + (20% to 40% inhibition = +) | inhibition at 25 µM ([11]; receptor activated to EC80 with agonist, read-out: inhibition of bitter receptor 71): 60 to 80% | inhibition of bitter receptor 55 [4, 31]: ++++ (80% or greater inhibition = ++++) | inhibition at 25 µM ([16]; receptor activated to EC80 with agonist, read-out: inhibition of bitter receptor 5): 20 to 40% | inhibition at 25 µM ([5]; HEK293, read-out: inhibition of bitter receptor 10, compound at 25 μM, receptor activated to EC80 with agonist): 40 to 60% | inhibition at 25 µM ([6]; receptor activated to EC80 with agonist, read-out: inhibition of bitter receptor 61): > 80% | inhibition at 25 µM ([7]; receptor activated to EC80 with agonist, read-out: inhibition of bitter receptor 64): > 80% | inhibition at 25 µM ([12]; receptor activated to EC80 with agonist, read-out: inhibition of bitter receptor 16): 20 to 40% | inhibition at 25 µM ([18]; receptor activated to EC80 with agonist, read-out: inhibition of bitter receptor 51): 40 to 60% | inhibition of bitter receptor 63 [9, 31]: +++ (60% to 80% inhibition = +++) | inhibition of bitter receptor 44 [13, 31]: +++ (60% to 80% inhibition = +++) | inhibition at 25 µM ([14]; receptor activated to EC80 with agonist, read-out: inhibition of bitter receptor 7): 20 to 40%
